The source made the active and inactive calls. The rule behind the calls is not given here.
Experiments:
Plasmodium falciparum [1] = experiment: Antiplasmodial activity against chloroquine-resistant Plasmodium falciparum W2 infected in human erythrocytes assessed as reduction in parasitaemia after 48 hrs by FACS; format: functional, organism-based; conditions: W2, 48 h
Vero [2] = experiment: Cytotoxicity against african green monkey Vero cells at => 5000 ng/mL; format: cell-based; conditions: chlorocebus sabaeus
Plasmodium falciparum [3] = experiment: Antiplasmodial activity against chloroquine-resistant Plasmodium falciparum W2 infected in human erythrocytes assessed as reduction in parasitaemia up to 10 uM after 48 hrs by FACS; format: functional, organism-based
Vero [4] = experiment: Cytotoxicity against african green monkey Vero cells at 1200 ng/mL; format: cell-based; conditions: chlorocebus sabaeus

| Structure (SMILES) | IC50 (Plasmodium falciparum [1]) [nM] | further results |
| --- | --- | --- |
| COc1ccc(CO[C@H]2C[C@H]3[C@@H]([C@H]2C)[C@@H](O)[C@@]2([C@@H](C)CO)C=C[C@]3(C)OO2)cc1 | 9110 | – |
| COc1ccc(CO[C@H]2C[C@H]3[C@@H]([C@H]2C)[C@H]2OC[C@H](C)[C@@]24C=C[C@]3(C)OO4)cc1 | 230 | – |
| CCO[C@@H]1O[C@@H]2[C@@H]3[C@@H](C)[C@@H](OCc4ccc(OC)cc4)C[C@@H]3[C@]3(C)C=C[C@]2(OO3)[C@H]1C | 620 | Activity (Vero [2]): Non-toxic |
| C[C@@H]1[C@H]2[C@H]3OC[C@H](C)[C@@]34C=C[C@](C)(OO4)[C@H]2C[C@@H]1O | 570 | – |
| COc1ccc(CO[C@H]2C[C@H]3[C@@H]([C@H]2C)[C@H]2OC(O)[C@H](C)[C@@]24CC[C@]3(C)OO4)cc1 (some centres not stated) | – | inhibition (Plasmodium falciparum [3]): inactive |
| COc1ccc(CO[C@H]2C[C@H]3[C@@H]([C@H]2C)[C@@H](O)[C@@]2([C@@H](C)COC(C)=O)C=C[C@]3(C)OO2)cc1 | – | inhibition (Plasmodium falciparum [3]): inactive |
| COc1ccc(CO[C@H]2C[C@H]3[C@@H]([C@H]2C)[C@H]2OC[C@H](C)[C@@]24CC[C@]3(C)OO4)cc1 | 7500 | – |
| C/C=C(/C)C(=O)O[C@H]1C(C)=C2[C@H]([C@@H]1OC(=O)CCCCCCC)[C@@](C)(OC(C)=O)C[C@H](OC(=O)CCC)[C@@]1(O)[C@H]2OC(=O)[C@@]1(C)O [THAPSIGARGIN] | – | Activity (Vero [4]): Toxic |
| CCO[C@H]1O[C@@H]2[C@@H]3[C@@H](C)[C@@H](OCc4ccc(OC)cc4)C[C@@H]3[C@]3(C)C=C[C@]2(OO3)[C@H]1C | 13 | Activity (Vero [2]): Non-toxic |
| CC(=O)OC[C@H](C)[C@]12C=C[C@](C)(OO1)[C@H]1C[C@H](O)[C@H](C)[C@H]1[C@H]2O | – | inhibition (Plasmodium falciparum [3]): inactive |
| CCO[C@@H]1O[C@@H]2[C@@H]3[C@@H](C)[C@@H](OCc4ccc(OC)cc4)C[C@@H]3[C@]3(C)CC[C@]2(OO3)[C@H]1C | 3400 | – |
| C[C@@H]1[C@H]2[C@H]3OC(=O)[C@H](C)[C@@]34CC[C@](C)(OO4)[C@H]2C[C@@H]1O | 610 | – |
| CCO[C@H]1O[C@@H]2[C@@H]3[C@@H](C)[C@@H](OCc4ccc(OC)cc4)C[C@@H]3[C@]3(C)CC[C@]2(OO3)[C@H]1C | 24 | Activity (Vero [2]): Non-toxic |
| C[C@H]1C(=O)C[C@H]2[C@@H]1[C@H]1OC(=O)[C@H](C)[C@@]13CC[C@]2(C)OO3 | 270 | – |
| CC(=O)OC[C@H](C)[C@]12C=C[C@](C)(OO1)[C@H]1C[C@H](O)[C@H](C)[C@H]1C2=O | – | inhibition (Plasmodium falciparum [3]): inactive |
| C[C@@H]1[C@H]2[C@@H](O)[C@@]3([C@@H](C)CO)C=C[C@](C)(OO3)[C@H]2C[C@@H]1O | – | inhibition (Plasmodium falciparum [3]): inactive |
| C[C@@H]1[C@H]2[C@H]3OC(=O)[C@H](C)[C@@]34C=C[C@](C)(OO4)[C@H]2C[C@@H]1O | 1050 | – |
| C[C@@H]1CC[C@H]2[C@@H](C)C(=O)O[C@@H]3O[C@@]4(C)CC[C@@H]1[C@]32OO4 [ARTEMISININ] | 5 | – |
| COc1ccc(CO[C@H]2C[C@H]3[C@@H]([C@H]2C)[C@H]2OC(=O)[C@H](C)[C@@]24CC[C@]3(C)OO4)cc1 | 370 | Activity (Vero [2]): Non-toxic |
| COc1ccc(CO[C@H]2C[C@H]3[C@@H]([C@H]2C)[C@H]2OC(O)[C@H](C)[C@@]24C=C[C@]3(C)OO4)cc1 (some centres not stated) | 1040 | – |
| CC(=O)OC[C@H](C)[C@]12C=C[C@](C)(OO1)[C@H]1CC(=O)[C@H](C)[C@H]1C2=O | 4600 | – |
| COc1ccc(CO[C@H]2C[C@H]3[C@@H]([C@H]2C)[C@H]2OC(=O)[C@H](C)[C@@]24C=C[C@]3(C)OO4)cc1 | 290 | Activity (Vero [2]): Non-toxic |
